Experimental data: patent US20060160095A1, “Survivin” (EiRx Therapeutics Limited, priority 2002, published 2006)
e = 2'-O-(2-methoxyethyl) (MOE); d = 2'-deoxy (DNA)

Legend:
[1] = system: Primary human neutrophils; assay: MTT survival assay of neutrophils cultured with GM-CSF, with or without gliotoxin; format: cell-based; conditions: 0.1 μg/ml added with 5 U/ml GM-CSF
Experimental: Primary human neutrophils are isolated and purified from peripheral blood of normal healthy individuals. Neutrophils are resuspended in serum containing culture medium together with various amounts of GM-CSF at a density of 2×10^6/ml, with 100 μl plated into a 96 well plate and cultured for 18 h at 37° C. After this time 10 μl of MTT (5 mg/ml) is added to the cultures and incubated for a further 4 h at 37° C. before solubilisation of the purple coloured formazan with acidic isopropanol. Optical densities are read at 570 nm using a plate reader.
Primary human neutrophils are isolated and purified from peripheral blood of normal healthy individuals. Neutrophils are resuspended in serum containing culture medium containing 5 U/ml of GM-CSF at a concentration of 2×10^6/ml. […] After the indicated time, 10 μl of MTT (5 mg/ml) are added to the cultures and incubated for a further 4 h at 37° C. before solubilisation of the purple coloured formazan with acidic isopropanol. Optical densities are read at 570 nm using a plate reader.

Survivin mRNA = assay: Real-time PCR quantification of survivin mRNA in neutrophils; format: cell-based, human; conditions: for survivin mRNA expression in the absence of survival cytokines: 4-h transfection period, no cytokine
Experimental: (§1) Neutrophils are cultured at 1×10^6 per ml in complete culture medium. GM-CSF (50 ng/ml; kind gift of T. Hartung, University of Konstanz, Konstanz, Germany) or G-CSF (25 ng/ml; PeproTech, BioConcept, Allschwil, Switzerland) are added. The duration of GM-CSF or G-CSF stimulation is indicated in each experiment.
Neutrophils (1×10^7) are washed with PBS and the RNA is isolated according to the RNeasy protocol (Qiagen AG, Basel, Switzerland), which includes DNase digestion. RNA is reverse transcribed with the first strand cDNA synthesis kit (Amersham Pharmacia Biotech) by using random hexanucleotides according to the manufacturer's instructions. Real-time monitoring of PCR amplification of survivin cDNA is performed with a 1/100 dilution of neutrophil cDNA as previously described (Olie et al. (2000) Cancer Research 60, 2805-2809). Relative quantification of survivin expression is performed as described (Olie et al. (2000) Cancer Research 60, 2805-2809) utilizing rRNA as an internal standard.
(§2) The 20-mer first generation antisense oligonucleotide 4003 targeting the survivin mRNA has been described above. The second generation 2′-O-methoxy-ethoxy (2′-MOE) gapmer version of 4003 (as) and its 3-base mismatch sequence control (ms) are synthesized using an Applied Biosystems 394B automated DNA synthesizer as described (De Mesaeker et al. (1995) Acc. Chem. Res. 28, 366-374). Sequences are as follows: antisense survivin, cscscsasgsCsCsTsTsCsCsAsGsCsTscscststsg; mismatch survivin, cscstsasgsCsCsTsTsCsCsAsGsGsTscscstsasg. Small letters refer to 2′-O-(2-methoxy)-ethyl-modified nucleotides, capital letters to DNA, and “s” refers to phosphorothioate linkages. Cells isolated and cultured as described above are treated with survivin antisense oligonucleotides (as) or survivin mismatch control oligonucleotides (ms) at the indicated concentrations. In the experiments in which GM-CSF (50 ng/ml; kind gift of T. Hartung, University of Konstanz, Konstanz, Germany) or G-CSF (25 ng/ml; PeproTech, BioConcept, Allschwil, Switzerland) are added, the oligonucleotides are given 2 h before addition of cytokines.

survivin = assay: Immunoblotting of survivin protein in neutrophils; format: cell-based, human
Experimental: as §1
Neutrophils (5×10^6) are washed with PBS, lysed with RIPA-buffer (0.5% sodium deoxycholate, 1% Nonidet P-40, 0.1% SDS in PBS) supplemented with a protease inhibitor-cocktail (Sigma) with frequent vortexing on ice for 40 min, including two freeze/thaw cycles using a methanol/dry ice bath. After a 10-min centrifugation to remove insoluble particles, equal amounts of the cell lysates are loaded on NuPage-Gels (Invitrogen Corp., Groningen, Netherlands). Separated proteins are electrotransferred onto polyvinylidene difluoride (PVDF) membranes (Immobilion-P, Millipore, Bedford, Mass.). The filters are incubated overnight with a polyclonal anti-survivin antibody (1/1000; R&D Systems, Abingdon, UK) at 4° C. in TBS/0.1% Tween-20/3% non-fat dry milk. Purified full-length recombinant human survivin (2 μl) is provided by R&D Systems as positive control for anti-survivin immunoblotting. For loading controls, stripped filters are incubated with a monoclonal anti-β-actin antibody (1/10,000; Sigma). Filters are washed in TBS/0.1% Tween-20 for 30 min and incubated with the appropriate HRP-conjugated secondary antibody (Amersham Pharmacia Biotech, Dübendorf, Switzerland) in TBS/0.1% Tween-20/5% non-fat dry milk for 1 h. Filters are developed by an ECL-technique (ECL-Kit, Amersham Pharmacia Biotech) according to the manufacturer's instructions.
as §2

Neutrophils = assay: Neutrophil apoptosis by oligonucleosomal DNA fragments after 2-MOE oligonucleotides; format: cell-based, human; conditions: for GM-CSF- and G-CSF-mediated survival of neutrophils: oligonucleotide plus GM-CSF or G-CSF
Experimental: Neutrophil apoptosis is assessed by oligonucleosomal DNA fragmentation (Dibbert et al.(1999) Proc. Natl. Acad. Sci. USA 96, 13330-13335; Hebestreit et al. (1998), J. Exp. Med. 187, 415-425) according to Nicoletti et al. ((1991) J. Immunol. Meth. 139, 271-279). Briefly, cells are resuspended in hypotonic fluorochrome solution containing 50 μg/ml propidium iodide (Sigma Buchs, Switzerland), 0.1% sodium citrate (Sigma) and 0.1% (vol/vol) Triton-X 100 (Sigma), incubated at 4° C. for 10 h, and analyzed by flow cytometry (FACScan, Becton Dickinson, Heidelberg, Germany).
as §2
Values are means ±S.E.M. of four independent experiments. *, p<0.05; **, p<0.01; ***, p<0.001.

caspase-3 [2] = assay: Caspase-3 immunoblotting in neutrophils; format: cell-based, human
Experimental: Immunoblotting is carried out as described above using supernatants of cell lysates. Caspase-3 is detected using a polyclonal anti-caspase-3 antibody (1/1000; Becton Dickinson Pharmingen, Heidelberg, Germany))
(§3) Neutrophils (2.5×10^6) are cultured in the presence or absence of GM-CSF (50 ng/ml), G-CSF (25 ng/ml), 2-MOE modified antisense or mismatch survivin oligonucleotides at the indicated concentrations for 10 h, washed with cold PBS and subsequently lysed in 50 μl cell lysis buffer (50 mM HEPES, pH 7.4/0.1% Chaps/5 mM DTT/0.1 mM EDTA) using a Teflon glass homogenizer (VWR International, Ismaning, Germany) on ice for 10 min. After a 10-min centrifugation step at 10,000×g at 4° C., an aliquot of the supernatant is saved for caspase-3 immunoblotting and caspase 3-like activity is measured in 10 μl supernatants as enzymatic-conversion of the colorimetric substrate Ac-DEVD-pNA at 405 nm according to the manufacturer's instructions (QuantiZyme caspase 3 cellular activity assay kit, Biomol, Plymouth Meeting, Pa., USA).

caspase-3 [3] = assay: Enzymatic caspase assay (Ac-DEVD-pNA) in neutrophil lysates; format: cell-based, human
Experimental: as §3

## CS[C@]1(CO)C(=O)N2[C@H]3C(=CC=C[C@@H]3O)C[C@@]2(SC)C(=O)N1C [methylgliotoxin, bis-Dethio-bis (Methylthio) Methyl Gliotoxin]
[1]
  block of the GM-CSF inhibition of neutrophil apoptosis (MTT): blocking effect is not seen

## cscscsasgsCsCsTsTsCsCsAsGsCsTscscststsg (CCCAGCCTTCCAGCTCCTTG; sugars from the 5' end e5 d10 e5, all phosphorothioate, methylation of C not given here) [survivin-antisense, second generation 2′-O-methoxy-ethoxy (2′-MOE) gapmer version of 4003]
Survivin mRNA
  survivin mRNA expression in the absence of survival cytokines: only little effects
Survivin mRNA; G-CSF stimulation
  required concentration to significantly decrease survivin mRNA levels: 2.5 µM
Survivin mRNA; GM-CSF stimulation
  concentration sufficient to significantly decrease survivin mRNA levels: 1.0 µM
Survivin mRNA; oligonucleotides given 2 h before cytokines, dose-dependent
  increases in survivin mRNA expression upon GM-CSF and G-CSF stimulation: prevents increases in survivin mRNA expression
survivin; 15-h transfection period, no cytokine
  protein expression of survivin in normal neutrophils: almost not affected
survivin; G-CSF stimulation
  optimal concentration to block increase in survivin protein expression: 5 µM
survivin; GM-CSF stimulation
  optimal concentration to block increase in survivin protein expression: 2.5 µM
survivin; dose-dependent
  increases in survivin expression (protein) upon GM-CSF and G-CSF stimulation: prevents increases in survivin expression
Neutrophils; 10-h transfection period, no cytokine
  spontaneous apoptosis of neutrophils: increase spontaneous apoptosis
Neutrophils; G-CSF
  optimal concentration to block cytokine-mediated antiapoptosis: 5 µM
Neutrophils; GM-CSF
  optimal concentration to block cytokine-mediated antiapoptosis: 2.5 µM
Neutrophils
  GM-CSF- and G-CSF-mediated survival of neutrophils: blocked GM-CSF- and G-CSF-mediated survival in a dose-dependent manner
caspase-3 [2]; G-CSF
  optimal concentration to block inhibitory effects on caspase-3 processing: 5 µM
caspase-3 [2]; GM-CSF
  optimal concentration to block inhibitory effects on caspase-3 processing: 2.5 µM
caspase-3 [2]; dose-dependent, 10 h
  caspase-3 processing in the presence of GM-CSF or G-CSF: increase caspase-3 processing
caspase-3 [3]; G-CSF
  optimal concentration at which inhibitory effect on caspase-3 activity is completely blocked: 5 µM
caspase-3 [3]; GM-CSF
  optimal concentration at which inhibitory effect on caspase-3 activity is completely blocked: 2.5 µM
caspase-3 [3]; dose-dependent, 10 h
  caspase-3-like enzymatic activity in the presence of GM-CSF or G-CSF: increase caspase-3-like enzymatic activity

## cscstsasgsCsCsTsTsCsCsAsGsGsTscscstsasg (CCTAGCCTTCCAGGTCCTAG; sugars from the 5' end e5 d10 e5, all phosphorothioate, methylation of C not given here) [mismatch control oligonucleotides, reference compound]
Survivin mRNA
  survivin mRNA expression in the absence of survival cytokines: only little effects
Neutrophils
  GM-CSF- and G-CSF-mediated survival of neutrophils: unspecific effect

B1: G-CSF: inflammatory cytokine, neutrophil hematopoietin (PeproTech) (protein, UniProt P09919 31-207, looked up)
Granulocyte …: TPLGPASSLPQSFLLKCLEQVRKIQGDGAALQEKLVSECATYKLCHPEELVLLGHSLGIPWAPLSSCPSQALQLAGCLSQLHSGLFLYQGLLQALEGISPELGPTLDTLQLDVADFATTIWQQMEELGMAPALQPTQGAMPAFASAFQRRAGGVLVASHLQSFLEVSYRVLRHLAQP
Survivin mRNA; cytokine added in vitro, A549 standard = 100%
  survivin mRNA in normal control neutrophils after cytokine addition: increase in survivin mRNA
survivin; cultured for 12 h in the presence of cytokine
  Levels of survivin (immunoblot) in normal control neutrophils: increased
Neutrophils; cytokine alone
  DNA-fragmentation of neutrophils with cytokine: prevent DNA-fragmentation
caspase-3 [2]; neutrophils cultured with GM-CSF or G-CSF for 10 h
  caspase-3 proform and 17-kDa fragment levels with cytokine: maintain greater amounts of the caspase-3 proform
